Measured values taken from US20240254138A1, “TRICYCLIC PYRIMIDINES AS CYCLIN-DEPENDENT KINASE 7 (CDK7) INHIBITORS” (JANSSEN PHARMACEUTICA NV, priority 2021, published 2024).
Read-outs that look alike come from different tables or passages of the source.

Legend:
[1] = system: RNA Polymerase II Serine 5 phosphorylation in A549 cells overexpressing CDK7-mutant (C312S); experiment: Imaging-based cellular RNA PolII Ser5 phosphorylation assay in A549 cells overexpressing CDK7-mutant (C312S); format: cell-based, human; conditions: RNA PolII Ser5 phosphorylation, averaged over all measurements; for IC50: Homo sapiens, A549, A549 cells overexpressing CDK7-mutant (C312S), read-out: CDK7_A549 mutant hCDK7(pIC50) (converted)
Outline: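 A549 cells overexpressing CDK7 C312S (with endogenous wild-type CDK7) were treated with compound for 3 h at 37 °C in 1% FBS medium. Phospho-Rpb1 CTD Ser5 was immunostained after fixation and imaged. IC50 came from curve fit of % control, normalised to DMSO and 10 μM reference-compound controls.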

[2] = system: RNA Polymerase II Serine 5 phosphorylation (Rpb1 CTD, downstream substrate of CDK7) in A549 cells; experiment: Imaging-based cellular RNA PolII Ser5 phosphorylation assay in A549 cells; format: cell-based, human; conditions: wild-type CDK7, RNA PolII Ser5 phosphorylation, averaged over all measurements; for IC50: Homo sapiens, A549, A549 cells, read-out: CDK7_A549 Wild-type CDK7 (pIC50) (converted)
Outline: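 A549 cells, seeded 1000/well in DMEM with 1% FBS and cultured 20 h, were treated with compound for 3 h at 37 °C. Ser5-phospho-Rpb1 CTD detected by immunofluorescence imaging after fixation and methanol permeabilization; IC50 from curve fit normalized to DMSO and 10 μM reference-compound controls.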

[3] = molecular target: CDK7/cyclinH/MAT1 trimeric complex (Homo sapiens, UniProt P50613); experiment: In vitro CDK7 assay, potency of irreversible covalent inhibitors (kinact/KI), coupled PK/LDH ADP readout at 340 nm
Chain of CDK7/cyclinH/MAT1 trimeric complex (P50613 whole entry): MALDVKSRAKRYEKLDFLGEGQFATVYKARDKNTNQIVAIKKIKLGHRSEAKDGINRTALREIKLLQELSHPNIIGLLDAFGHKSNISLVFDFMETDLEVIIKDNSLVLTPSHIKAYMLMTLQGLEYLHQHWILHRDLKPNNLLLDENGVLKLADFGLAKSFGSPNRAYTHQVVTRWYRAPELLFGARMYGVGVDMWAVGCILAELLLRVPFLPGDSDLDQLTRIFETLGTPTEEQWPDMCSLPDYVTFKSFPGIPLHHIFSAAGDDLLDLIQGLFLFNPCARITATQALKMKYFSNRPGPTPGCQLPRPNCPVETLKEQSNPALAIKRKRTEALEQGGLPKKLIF
Chain of CDK7/cyclinH/MAT1 trimeric complex (P51946 whole entry partner): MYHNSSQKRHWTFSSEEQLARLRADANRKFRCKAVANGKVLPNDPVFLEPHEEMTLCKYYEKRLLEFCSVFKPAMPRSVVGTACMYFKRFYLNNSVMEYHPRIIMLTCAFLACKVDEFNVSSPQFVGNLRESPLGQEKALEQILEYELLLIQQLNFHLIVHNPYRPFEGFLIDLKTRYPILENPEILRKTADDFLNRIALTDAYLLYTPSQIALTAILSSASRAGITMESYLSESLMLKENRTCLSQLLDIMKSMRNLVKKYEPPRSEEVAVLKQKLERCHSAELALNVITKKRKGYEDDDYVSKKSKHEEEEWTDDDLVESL
Chain of CDK7/cyclinH/MAT1 trimeric complex (P51948 whole entry partner): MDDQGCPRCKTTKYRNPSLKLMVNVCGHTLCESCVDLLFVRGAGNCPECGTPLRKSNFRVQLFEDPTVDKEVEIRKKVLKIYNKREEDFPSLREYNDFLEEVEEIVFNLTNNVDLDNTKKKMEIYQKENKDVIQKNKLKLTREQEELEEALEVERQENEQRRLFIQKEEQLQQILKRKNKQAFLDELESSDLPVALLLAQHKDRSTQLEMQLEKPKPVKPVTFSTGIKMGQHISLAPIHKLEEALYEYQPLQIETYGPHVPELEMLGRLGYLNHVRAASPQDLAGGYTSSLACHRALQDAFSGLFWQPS

[4] = read-out: CDK7 (20 nM enz.) (kobs/[I], M^−1*s^−1), 20 nM enzyme
[5] = CDK7 (20 nM enz.) (KI, μM), 20 nM enzyme
[6] = read-out: CDK7 (20 nM enz.) (kinact, s^−1), 20 nM enzyme
[7] = read-out: CDK7 (20 nM enz.) (kinact/KI, M^−1*s^−1), 20 nM enzyme
[8] = CDK7 (KI(μM)), […], 1 mM ATP, room temperature, averaged values over all measurements
[9] = read-out: CDK7 (kinact, s^−1), kinact = maximal rate of inactivation, 1 mM ATP, room temperature, averaged values over all measurements
[10] = read-out: CDK7 (kinact/KI, M^−1*s^−1), potency of irreversible covalent inhibitors, 1 mM ATP, room temperature, averaged values over all measurements

Row | IC50 [1] [µM] | IC50 [2] [nM] | kinact/KI [3, 4] [M⁻¹ s⁻¹] | Ki [3, 5] [µM] | kinact [3, 6] [s⁻¹] | kinact/KI [3, 7] [M⁻¹ s⁻¹] | CDK7_A549 mutant hCDK7(pIC50) ([1]; A549 cells overexpressing CDK7-mutant (C312S)) | CDK7_A549 Wild-type CDK7 (pIC50) ([2]; A549 cells) | CDK7 (20 nM enz.) (kinact/KI, M^−1*s^−1) ([3]; 20 nM enzyme) [M⁻¹ s⁻¹] | Ki [3, 8] [µM] | kinact [3, 9] [s⁻¹] | kinact/KI [3, 10] [M⁻¹ s⁻¹] | SMILES
1 | > 10 | 145 | 634 |  |  |  |  |  |  |  |  |  | C=CC(=O)N1CC(N2CC[C@@H](c3ccc4c(c3)Nc3nccc(N5CCOCC5)c3CO4)[C@@H](C)C2)C1 (mixture of isomers) [Compound 70]
2 | > 10 | 589 |  | 0.412 | 6.82e-05 | 166 |  |  |  |  |  |  | C=CC(=O)N1CC(N2CC[C@@H](c3ccc4c(c3)Nc3nccc(N5CCOCC5)c3CO4)[C@H](O)C2)C1 (mixture of isomers) [Compound 72]
3 | ~10 | 93.3 |  | 0.0506 | 4.11e-05 | 812 |  |  |  |  |  |  | C=CC(=O)N1CC[C@H](N2CC(c3cc(C)c4c(c3)Nc3nccc(C5CCOCC5)c3CO4)C2)[C@H](F)C1 (mixture of isomers) [Compound 200]
4 | ~10 | 89.1 |  | 0.0701 | 3.6e-05 | 514 |  |  |  |  |  |  | C=CC(=O)N1CC[C@@H](N2CC(c3cc(C)c4c(c3)Nc3nccc(-c5cnn(C)c5)c3CO4)C2)[C@@H](F)C1 (mixture of isomers) [Compound 201]
5 | > 10 | 107 |  | 0.0239 | 3.55e-05 | 1490 |  |  |  |  |  |  | C=CC(=O)N1CC[C@@H](N2CC(c3cc(C)c4c(c3)Nc3nccc(N5CCOCC5)c3CO4)C2)[C@@H](F)C1 (mixture of isomers) [Compound 202]
6 | > 10 | 81.3 |  | 0.0523 | 4.19e-05 | 802 |  |  |  |  |  |  | C=CC(=O)N1CC[C@@H](N2CC(c3cc(C)c4c(c3)Nc3nccc(-c5cnn(C)c5)c3CO4)C2)[C@H](F)C1 (mixture of isomers) [Compound 203]
7 | > 10 | 83.2 |  | 0.0443 | 3.83e-05 | 865 |  |  |  |  |  |  | C=CC(=O)N1CC[C@@H](N2CC(c3cc(C)c4c(c3)Nc3nccc(N5CCOCC5)c3CO4)C2)[C@H](F)C1 (mixture of isomers) [Compound 207]
8 | > 10 | 398 |  | 0.2 | 2.94e-05 | 147 |  |  |  |  |  |  | C=CC(=O)N1CC[C@H](N2CC(c3cc4c(c(C)n3)OCc3c(-c5cnn(C)c5)ccnc3N4)C2)[C@@H](F)C1 (mixture of isomers) [Compound 212]
9 | > 10 | 251 |  | 0.267 | 4.9e-05 | 183 |  |  |  |  |  |  | C=CC(=O)N1CC[C@H](N2CC(c3cc4c(c(C)n3)OCc3c(-c5cnn(C)c5)ccnc3N4)C2)[C@H](F)C1 (mixture of isomers) [Compound 213]
10 | > 10 | 631 |  | 0.114 | 2.74e-05 | 240 |  |  |  |  |  |  | C=CC(=O)N1CC[C@@H](N2CC(c3cc4c(c(C)n3)OCc3c(N5CCOCC5)ccnc3N4)C2)[C@H](F)C1 (mixture of isomers) [Compound 220]
11 |  |  |  | 0.67 | 6.76e-05 |  | <5 | 6.55 | 100.867 |  |  |  | C=CC(=O)N1CC(N2CC[C@H](c3ccc4c(c3)Nc3nccc(N5CCOCC5)c3CO4)[C@@H](F)C2)C1 (mixture of isomers) [Compound 226]
12 | > 10 | 178 |  | 0.129 | 6.25e-05 | 486 |  |  |  |  |  |  | C=CC(=O)N1CC(N2CC[C@@H](c3ccc4c(c3)Nc3nccc(N5CCOCC5)c3CO4)[C@@H](O)C2)C1 (mixture of isomers) [Compound 228]
13 | 7.41 | 162 |  | 0.084 | 3.05e-05 | 362 |  |  |  |  |  |  | C=CC(=O)N1CC[C@H](N2CC(c3cc4c(c(C)n3)OCc3c(C5CCOCC5)ccnc3N4)C2)[C@H](F)C1 (mixture of isomers) [Compound 236]
14 | > 10 | 316 |  | 0.129 | 2.7e-05 | 209 |  |  |  |  |  |  | C=CC(=O)N1CC[C@H](N2CC(c3cc4c(c(C)n3)OCc3c(C5CCOCC5)ccnc3N4)C2)[C@@H](F)C1 (mixture of isomers) [Compound 242]
15 | 5.89 | 120 |  |  |  | 397 |  |  |  |  |  |  | CC#CC(=O)N1CCC(N2CC(c3cc(C#N)c4c(c3)Nc3nccc(N5CCOCC5)c3[C@@H](C)O4)C2)C1 (mixture of isomers) [Compound 493]
16 | > 10 | 4070 |  |  |  | 3.14 |  |  |  |  |  |  | CC#CC(=O)N1CCC(N2CC(c3cc(C#N)c4c(c3)Nc3nccc(N5CCOCC5)c3[C@H](C)O4)C2)C1 (mixture of isomers) [Compound 494]
17 | > 10 | 1620 |  |  |  |  |  |  |  | 0.325 | 4.98e-05 | 153 | C=CC(=O)N1CC[C@H]2CN(c3ccc4c(c3)Nc3nccc(N5CCOCC5)c3CO4)CC[C@@H]21 (racemic) [Compound 48]
18 | > 10 | 123 |  | 0.0404 | 6.96e-05 | 1720 |  |  |  |  |  |  | C#CCCN(C)C/C=C/C(=O)N1CC(N2CCC(c3ccc4c(c3)Nc3nccc(N5CCOCC5)c3C(C)O4)CC2)C1 (racemic) [Compound 143]
19 | > 10 | 93.3 |  | 0.0443 | 4.45e-05 | 1000 |  |  |  |  |  |  | C=CC(=O)N1CC[C@@H](N2CC(c3cc(C)c4c(c3)Nc3nccc(C5CCOCC5)c3CO4)C2)[C@H](F)C1 (racemic) [Compound 206]
20 | > 10 | 550 |  | 0.472 | 6.66e-05 | 141 |  |  |  |  |  |  | C=CC(=O)N1CC(N2CC[C@@H](c3ccc4c(c3)Nc3nccc(N5CCOCC5)c3CO4)[C@H](O)C2)C1 (racemic) [Compound 216]
21 | > 10 | 3720 |  |  |  |  |  |  |  |  |  | 28.7 | C=CC(=O)N1CC[C@H]2CN(c3ccc4c(c3)Nc3nccc(N5CCOCC5)c3CO4)CC[C@H]21 (relative stereo) [Compound 27]
22 | > 10 | 398 |  |  |  |  |  |  |  | 0.177 | 0.000102 | 578 | C=CC(=O)N1CC(N2CCC(c3ccc4c(c3)Nc3nccc(N5CCOC[C@@H]5C)c3CO4)CC2)C1 (single isomer, unassigned) [Compound 32]
23 | > 10 | 158 |  | 0.0619 | 6.91e-05 | 1120 |  |  |  |  |  | 744 | C=CC(=O)N1CC[C@H](N2CCC(c3ccc4c(c3)Nc3nccc(N5CCOCC5)c3CO4)CC2)C1 (single isomer, unassigned) [Compound 38]
24 | 0.832 | < 9.77 | 1570 |  |  |  |  |  |  |  |  | 602 | C=CC(=O)N1CC[C@@H](N2CCC(c3ccc4c(c3)Nc3nccc(N5CCOCC5)c3CO4)CC2)C1 (single isomer, unassigned) [Compound 44]
25 | > 10 | 214 |  | 0.0862 | 6.48e-05 | 752 |  |  |  |  |  |  | C=CC(=O)N1CC(N2CC[C@H](c3ccc4c(c3)Nc3nccc(N5CCOCC5)c3CO4)C(C)(C)C2)C1 (single isomer, unassigned) [Compound 67]
26 | > 10 | 2750 |  |  |  |  |  |  |  |  |  |  | CC#CC(=O)N1CCC(N2CC(c3nc(C)c4c(n3)Nc3nccc(N5CCOCC5)c3[C@@H](C)O4)C2)CC1 [Compound 546]
27 | > 10 | > 10000 |  |  |  |  |  |  |  |  |  |  | CC#CC(=O)N1CCC(N2CC(c3nc(C)c4c(n3)Nc3nccc(N5CCOCC5)c3[C@H](C)O4)C2)CC1 [Compound 547]
